# Reference: US20090105329A1 (priority 2005, published 2009)
# Entries after “also recorded” stand apart in the source; their conditions may differ. Where two headings read alike, the source gives them in different places.
# How the values were obtained:
# [1] = test system: patients with advanced solid malignancies; experiment: Phase I study of SAHA in combination with Carboplatin and Paclitaxel: dose-limiting and other toxicities; assay type: in vivo, human; conditions: in the combination
# Protocol: The study is designed to define dose-limiting and non-dose limiting toxicities associated with this combination, and to obtain evidence of anti-tumor activity.
# Both Carboplatin and Paclitaxel are administered on Day 1 of each treatment cycle. […] Each treatment cycle lasts for 3 weeks.
# Definition of dose-limiting toxicity (DLT): Toxicities must be attributable to the study drug(s) to constitute DLT. […] If baseline value is elevated prior to drug therapy, an increase is not considered a DLT unless there is an elevation by more than two grades, and it is of clinical significance. Management and dose modifications associated with the above adverse events are outlined below.
# Dosing delays and dose modifications: No intra-patient dose escalation is used. Chemotherapy doses may be reduced for hematological and non-hematological effects. Dose adjustments are to be made according to the system showing the greatest degree of toxicity. Toxicity is graded using the National Cancer Institute Common Toxicity Criteria (NCI CTC) for adverse events (version 3.0). Treatment may be delayed no more than two weeks to allow recovery from toxicity. Dose adjustments for toxicity are made according to the following guidelines.
# Methods: Eligible patients were those with advanced solid malignancies who were candidates for combination therapy with Carboplatin and Paclitaxel. […] Carboplatin and Paclitaxel were given on Day 1 of each cycle.
# [2] = Plasma pharmacokinetics of SAHA and its two major metabolites (LC-MS/MS) in the phase I study; assay type: in vivo, human
# Protocol: Samples are assayed by the HPLC method (Kelly W K, Richon V M, O'Connor O, et al. Clin. Cancer Res. 2003; 9:3578-88) or by LC/MS assay. […] Quantitation of Paclitaxel and total platinum concentrations is done by validated methodology. […] Compartmental modeling is done with the computer program ADAPT II. Non-compartmental modeling is done with the […] function as implemented by the computer program […]. […] The time that Paclitaxel concentrations remain above 0.05 μM is determined using a limited sampling strategy with the 24-hour sample. […] Methods: Eligible patients were those with advanced solid malignancies who were candidates for combination therapy with Carboplatin and Paclitaxel. […] Carboplatin and Paclitaxel were given on Day 1 of each cycle.
# [3] = test system: carcinogen-induced (N-methylnitrosourea) mammary tumors; conditions: rats, SAHA in their diet over the 130 days of the study; cited from earlier work
# [4] = test system: patients with advanced solid malignancies; conditions: on this schedule; cited from earlier work
# [5] = oral SAHA with food; cited from earlier work
# [6] = human, plasma, po, oral SAHA, patients, plasma, Example 8, read-out: t1/2 (elimination half life) (converted)
structure (smiles),measurement,setting,value
"[NH2][Pt]1([NH2])[O]C(=O)C2(CCC2)C(=O)[O]1 [Carboplatin, platinum, diammine [1,1-cyclobutane-dicarboxylato (2-)-0,0′]-, (SP-4-2)]",Dose recommended for phase II studies,"[1]; Day 1, 3 week cycles",6 AUC
O=C(O)CCC(=O)Nc1ccccc1 [4-Anilino-4-oxobutanoic acid],half-life,"[2]; human, plasma, po, Example 9, further results, patients after oral SAHA, read-out: t1/2 of acid metabolite (converted)",246 ± 78 min
same,half-life,[2]; [6],~360 min
same,Cmax relative to SAHA Cmax,"[2]; metabolite in plasma after oral SAHA, fold greater than SAHA Cmax",1.5-7 fold
"CC(=O)O[C@H]1C(=O)[C@@]2(C)[C@H]([C@H](OC(=O)c3ccccc3)[C@]3(O)C[C@H](OC(=O)[C@H](O)[C@@H](NC(=O)c4ccccc4)c4ccccc4)C(C)=C1C3(C)C)[C@]1(OC(C)=O)CO[C@@H]1C[C@@H]2O [Paclitaxel, 5-beta, 20-epoxy-1,2-alpha, 4,7-beta, 10-beta, 13-alpha-hexahydroxytax-11-en-9-one 4,10-diacetate 2-benzoate 13-ester with (2R,3S)—N-benzoyl-3-phenylisoserine]",Dose recommended for phase II studies,"[1]; Day 1, 3 week cycles",200 mg/m^2
O=C(CCCCCCC(=O)Nc1ccccc1)NO[C@@H]1O[C@H](C(=O)O)[C@@H](O)[C@H](O)[C@H]1O [SAHA glucuronide],t1/2 (elimination half life),"[2]; human, in vivo, po",approximately 2 h
"O=C(CCCCCCC(=O)Nc1ccccc1)NO [SAHA, N-Hydroxy-N′-phenyl octanediamide]",development and continued growth of carcinogen-induced (N-methylnitrosourea) mammary tumors,[3],effective at inhibiting
same,RP2D of single agent SAHA,[4],400 mg
same,bioavailability when taken with food,[5],does not alter the bioavailability
same,effect of Carboplatin and Paclitaxel on SAHA pharmacokinetics,[2]; Day -4 (SAHA alone) vs Day 1 (with Carboplatin and Paclitaxel),did not alter SAHA pharmacokinetics; also recorded: not altered
same,SAHA clearance on Day 1 as compared to Day -4,"[2]; Example 9, most recent data",potential decreased clearance
same,half-life,[2]; [6],96 ± 30 min
same,Tmax,"[2]; human, plasma, po, read-out: Tmax (time to maximum plasma or serum concentration)",0.5 to 2 h
same,AUC versus dose,"[2]; oral SAHA 200-400 mg, patients",increased with dose
same,absorption,"[2]; oral SAHA, patients",rapidly absorbed
same,CL/F (clearance/bioavailability),"[2]; oral SAHA, patients, Example 8",5.8 ± 1.7 L/min
same,Dose recommended for phase II studies,"[1]; PO QD (Days 1-14), 3 week cycles",400 mg
